Laboratory results published in EP0726263A2, “Herbicidal (1,3,4)oxadiazoles and thiadiazoles” (American Cyanamid Company, priority 1995, dated 1996).

Experiments:
Format in all cases: in vivo
Glycine max [1] = experiment: Herbicidal activity, preemergence test; details: pre; sprayed onto soil, 800 g of active material per hectare; evaluated 3 weeks after treatment
Procedure: (§1) To evaluate their herbicidal activity, compounds according to the invention are tested using a representative range of plants: TRZAW Triticum aestivum HORVW Hordeum vulgare ZEAMX Zea mays GOSHI Gossypium hirsutum HELAN Helianthus annuus GLYMA Glycine max ALOMY Alopecurus myosuroides SETVI Setaria viridis ECHCG Echinochloa crus-galli GALAP Galium aparine STEME Stellaria media VERPE Veronica persica VIOAR Viola arvensis IPOHE Ipomoea hederacea LAMPU Lamium purpureum PAPRH Papaver rhoeas MATIN Matricaria inodora AMARE Amaranthus retroflexus ABUTH Abutilon theophrasti AMBEL Ambrosia artemisifolia CHEAL Chenopodium album
(§2) The tests fall into two categories, preemergence and postemergence. The preemergence tests involve spraying a liquid formulation of the compound onto the soil in which the seeds have recently been sown. The postemergence tests involve spraying a liquid formulation of the compound onto seedling plants.
(§3) The soil used in the tests is a prepared horticultural loam.
(§4) The formulations used in the tests are prepared from solutions of the test compounds in acetone containing 0.4% by weight of an alkylphenol/ethylene oxide condensate available under the trade mark TRITON X-155. These acetone solutions are diluted with water and the resulting formulations applied at dosage levels corresponding to 800 g of active material per hectare in a volume equivalent to 900 litres per hectare.
(§5) In the preemergence tests untreated sown soil and in the postemergence tests untreated soil bearing seedling plants are used as controls.
(§6) Results of herbicide evaluation are expressed on a rating scale (0-9). The scale is based upon a visual observation of plant stand, vigor, malformation, size, chlorosis, and general plant appearance as compared to a control. Preemergence and postemergence treatments are evaluated at 3 and 2 weeks after treatment, respectively.

Lamium purpureum [2] = experiment: Herbicidal activity, preemergence test; details: pre; sprayed onto soil, 800 g of active material per hectare; evaluated 3 weeks after treatment
Procedure: as §1, §2, §3, §4, §5, §6

Stellaria media [3] = experiment: Herbicidal activity, preemergence test; details: pre; sprayed onto soil, 800 g of active material per hectare; evaluated 3 weeks after treatment
Procedure: as §1, §2, §3, §4, §5, §6

Gossypium hirsutum [4] = experiment: Herbicidal activity, preemergence test; details: pre; sprayed onto soil, 800 g of active material per hectare; evaluated 3 weeks after treatment
Procedure: as §1, §2, §3, §4, §5, §6

Hordeum vulgare [5] = experiment: Herbicidal activity, preemergence test; details: pre; sprayed onto soil, 800 g of active material per hectare; evaluated 3 weeks after treatment
Procedure: as §1, §2, §3, §4, §5, §6

Zea mays [6] = experiment: Herbicidal activity, preemergence test; details: pre; sprayed onto soil, 800 g of active material per hectare; evaluated 3 weeks after treatment
Procedure: as §1, §2, §3, §4, §5, §6

Abutilon theophrasti [7] = experiment: Herbicidal activity, preemergence test; details: pre; sprayed onto soil, 800 g of active material per hectare; evaluated 3 weeks after treatment
Procedure: as §1, §2, §3, §4, §5, §6

Galium aparine [8] = experiment: Herbicidal activity, preemergence test; details: pre; sprayed onto soil, 800 g of active material per hectare; evaluated 3 weeks after treatment
Procedure: as §1, §2, §3, §4, §5, §6

Triticum aestivum [9] = experiment: Herbicidal activity, preemergence test; details: pre; sprayed onto soil, 800 g of active material per hectare; evaluated 3 weeks after treatment
Procedure: as §1, §2, §3, §4, §5, §6

Matricaria inodora [10] = experiment: Herbicidal activity, preemergence test; details: pre; sprayed onto soil, 800 g of active material per hectare; evaluated 3 weeks after treatment
Procedure: as §1, §2, §3, §4, §5, §6

Veronica persica [11] = experiment: Herbicidal activity, preemergence test; details: pre; sprayed onto soil, 800 g of active material per hectare; evaluated 3 weeks after treatment
Procedure: as §1, §2, §3, §4, §5, §6

Alopecurus myosuroides [12] = experiment: Herbicidal activity, preemergence test; details: pre; sprayed onto soil, 800 g of active material per hectare; evaluated 3 weeks after treatment
Procedure: as §1, §2, §3, §4, §5, §6

Ipomoea hederacea [13] = experiment: Herbicidal activity, preemergence test; details: pre; sprayed onto soil, 800 g of active material per hectare; evaluated 3 weeks after treatment
Procedure: as §1, §2, §3, §4, §5, §6

Ambrosia artemisifolia [14] = experiment: Herbicidal activity, preemergence test; details: pre; sprayed onto soil, 800 g of active material per hectare; evaluated 3 weeks after treatment
Procedure: as §1, §2, §3, §4, §5, §6

Setaria viridis [15] = experiment: Herbicidal activity, preemergence test; details: pre; sprayed onto soil, 800 g of active material per hectare; evaluated 3 weeks after treatment
Procedure: as §1, §2, §3, §4, §5, §6

Chenopodium album [16] = experiment: Herbicidal activity, preemergence test; details: pre; sprayed onto soil, 800 g of active material per hectare; evaluated 3 weeks after treatment
Procedure: as §1, §2, §3, §4, §5, §6

Amaranthus retroflexus [17] = experiment: Herbicidal activity, preemergence test; details: pre; sprayed onto soil, 800 g of active material per hectare; evaluated 3 weeks after treatment
Procedure: as §1, §2, §3, §4, §5, §6

Papaver rhoeas [18] = experiment: Herbicidal activity, preemergence test; details: pre; sprayed onto soil, 800 g of active material per hectare; evaluated 3 weeks after treatment
Procedure: as §1, §2, §3, §4, §5, §6

Glycine max [19] = experiment: Herbicidal activity, postemergence test; details: post; sprayed onto seedling plants, 800 g of active material per hectare; evaluated 2 weeks after treatment
Procedure: as §1, §2, §3, §4, §5, §6

Lamium purpureum [20] = experiment: Herbicidal activity, postemergence test; details: post; sprayed onto seedling plants, 800 g of active material per hectare; evaluated 2 weeks after treatment
Procedure: as §1, §2, §3, §4, §5, §6

Stellaria media [21] = experiment: Herbicidal activity, postemergence test; details: post; sprayed onto seedling plants, 800 g of active material per hectare; evaluated 2 weeks after treatment
Procedure: as §1, §2, §3, §4, §5, §6

Gossypium hirsutum [22] = experiment: Herbicidal activity, postemergence test; details: post; sprayed onto seedling plants, 800 g of active material per hectare; evaluated 2 weeks after treatment
Procedure: as §1, §2, §3, §4, §5, §6

Hordeum vulgare [23] = experiment: Herbicidal activity, postemergence test; details: post; sprayed onto seedling plants, 800 g of active material per hectare; evaluated 2 weeks after treatment
Procedure: as §1, §2, §3, §4, §5, §6

Zea mays [24] = experiment: Herbicidal activity, postemergence test; details: post; sprayed onto seedling plants, 800 g of active material per hectare; evaluated 2 weeks after treatment
Procedure: as §1, §2, §3, §4, §5, §6

Abutilon theophrasti [25] = experiment: Herbicidal activity, postemergence test; details: post; sprayed onto seedling plants, 800 g of active material per hectare; evaluated 2 weeks after treatment
Procedure: as §1, §2, §3, §4, §5, §6

Galium aparine [26] = experiment: Herbicidal activity, postemergence test; details: post; sprayed onto seedling plants, 800 g of active material per hectare; evaluated 2 weeks after treatment
Procedure: as §1, §2, §3, §4, §5, §6

Triticum aestivum [27] = experiment: Herbicidal activity, postemergence test; details: post; sprayed onto seedling plants, 800 g of active material per hectare; evaluated 2 weeks after treatment
Procedure: as §1, §2, §3, §4, §5, §6

Matricaria inodora [28] = experiment: Herbicidal activity, postemergence test; details: post; sprayed onto seedling plants, 800 g of active material per hectare; evaluated 2 weeks after treatment
Procedure: as §1, §2, §3, §4, §5, §6

Veronica persica [29] = experiment: Herbicidal activity, postemergence test; details: post; sprayed onto seedling plants, 800 g of active material per hectare; evaluated 2 weeks after treatment
Procedure: as §1, §2, §3, §4, §5, §6

Alopecurus myosuroides [30] = experiment: Herbicidal activity, postemergence test; details: post; sprayed onto seedling plants, 800 g of active material per hectare; evaluated 2 weeks after treatment
Procedure: as §1, §2, §3, §4, §5, §6

Ipomoea hederacea [31] = experiment: Herbicidal activity, postemergence test; details: post; sprayed onto seedling plants, 800 g of active material per hectare; evaluated 2 weeks after treatment
Procedure: as §1, §2, §3, §4, §5, §6

Ambrosia artemisifolia [32] = experiment: Herbicidal activity, postemergence test; details: post; sprayed onto seedling plants, 800 g of active material per hectare; evaluated 2 weeks after treatment
Procedure: as §1, §2, §3, §4, §5, §6

Setaria viridis [33] = experiment: Herbicidal activity, postemergence test; details: post; sprayed onto seedling plants, 800 g of active material per hectare; evaluated 2 weeks after treatment
Procedure: as §1, §2, §3, §4, §5, §6

Chenopodium album [34] = experiment: Herbicidal activity, postemergence test; details: post; sprayed onto seedling plants, 800 g of active material per hectare; evaluated 2 weeks after treatment
Procedure: as §1, §2, §3, §4, §5, §6

Amaranthus retroflexus [35] = experiment: Herbicidal activity, postemergence test; details: post; sprayed onto seedling plants, 800 g of active material per hectare; evaluated 2 weeks after treatment
Procedure: as §1, §2, §3, §4, §5, §6

Papaver rhoeas [36] = experiment: Herbicidal activity, postemergence test; details: post; sprayed onto seedling plants, 800 g of active material per hectare; evaluated 2 weeks after treatment
Procedure: as §1, §2, §3, §4, §5, §6

Structure (SMILES)	GLXMA control rating (0-9) (Glycine max [1])	LAMPU control rating (0-9) (Lamium purpureum [2])	STEME control rating (0-9) (Stellaria media [3])	GOSHI control rating (0-9) (Gossypium hirsutum [4])	HORVW control rating (0-9) (Hordeum vulgare [5])	ZEAMX control rating (0-9) (Zea mays [6])	ABUTH control rating (0-9) (Abutilon theophrasti [7])	GALAP control rating (0-9) (Galium aparine [8])	TRZAW control rating (0-9) (Triticum aestivum [9])	MATIN control rating (0-9) (Matricaria inodora [10])	VERPE control rating (0-9) (Veronica persica [11])	ALOMY control rating (0-9) (Alopecurus myosuroides [12])	IPOHE control rating (0-9) (Ipomoea hederacea [13])	AMBEL control rating (0-9) (Ambrosia artemisifolia [14])	SETVI control rating (0-9) (Setaria viridis [15])	CHEAL control rating (0-9) (Chenopodium album [16])	AMARE control rating (0-9) (Amaranthus retroflexus [17])	PAPRH control rating (0-9) (Papaver rhoeas [18])	GLXMA control rating (0-9) (Glycine max [19])	LAMPU control rating (0-9) (Lamium purpureum [20])	other results
O=C(NCc1cccs1)c1nnc(-c2ccc(F)cc2)o1 [Example 8]	2 (slight effect)	0 (no effect)	7 (good herbicidal effect)	2 (slight effect)	0 (no effect)	2 (slight effect)	0 (no effect)	0 (no effect)	0 (no effect)	5 (definite injury)	7 (good herbicidal effect)	0 (no effect)	0 (no effect)	3 (moderate effect)	3 (moderate effect)	5 (definite injury)	9 (complete kill)	9 (complete kill)	0 (no effect)	0 (no effect)	STEME control rating (0-9) (Stellaria media [21]): 5 (definite injury); GOSHI control rating (0-9) (Gossypium hirsutum [22]): 0 (no effect); HORVW control rating (0-9) (Hordeum vulgare [23]): 0 (no effect); ZEAMX control rating (0-9) (Zea mays [24]): 0 (no effect); ABUTH control rating (0-9) (Abutilon theophrasti [25]): 3 (moderate effect); GALAP control rating (0-9) (Galium aparine [26]): 0 (no effect); TRZAW control rating (0-9) (Triticum aestivum [27]): 0 (no effect); MATIN control rating (0-9) (Matricaria inodora [28]): 2 (slight effect); VERPE control rating (0-9) (Veronica persica [29]): 4 (injury); ALOMY control rating (0-9) (Alopecurus myosuroides [30]): 0 (no effect); IPOHE control rating (0-9) (Ipomoea hederacea [31]): 0 (no effect); AMBEL control rating (0-9) (Ambrosia artemisifolia [32]): 3 (moderate effect); SETVI control rating (0-9) (Setaria viridis [33]): 0 (no effect); CHEAL control rating (0-9) (Chenopodium album [34]): 4 (injury); AMARE control rating (0-9) (Amaranthus retroflexus [35]): 8 (approaching complete kill); PAPRH control rating (0-9) (Papaver rhoeas [36]): 3 (moderate effect)
O=C(NCc1cccs1)c1nnc(-c2ccccc2F)o1 [Example 11]	0 (no effect)	0 (no effect)	7 (good herbicidal effect)	0 (no effect)	0 (no effect)	1 (trace effect)	0 (no effect)	0 (no effect)	0 (no effect)	2 (slight effect)	7 (good herbicidal effect)	0 (no effect)	0 (no effect)	0 (no effect)	3 (moderate effect)	3 (moderate effect)	7 (good herbicidal effect)	8 (approaching complete kill)	0 (no effect)	0 (no effect)	STEME control rating (0-9) (Stellaria media [21]): 7 (good herbicidal effect); GOSHI control rating (0-9) (Gossypium hirsutum [22]): 1 (trace effect); HORVW control rating (0-9) (Hordeum vulgare [23]): 0 (no effect); ZEAMX control rating (0-9) (Zea mays [24]): 0 (no effect); ABUTH control rating (0-9) (Abutilon theophrasti [25]): 5 (definite injury); GALAP control rating (0-9) (Galium aparine [26]): 0 (no effect); TRZAW control rating (0-9) (Triticum aestivum [27]): 0 (no effect); MATIN control rating (0-9) (Matricaria inodora [28]): 0 (no effect); VERPE control rating (0-9) (Veronica persica [29]): 6 (herbicidal effect); ALOMY control rating (0-9) (Alopecurus myosuroides [30]): 0 (no effect); IPOHE control rating (0-9) (Ipomoea hederacea [31]): 0 (no effect); AMBEL control rating (0-9) (Ambrosia artemisifolia [32]): 4 (injury); SETVI control rating (0-9) (Setaria viridis [33]): 0 (no effect); CHEAL control rating (0-9) (Chenopodium album [34]): 8 (approaching complete kill); AMARE control rating (0-9) (Amaranthus retroflexus [35]): 9 (complete kill); PAPRH control rating (0-9) (Papaver rhoeas [36]): 7 (good herbicidal effect)
